The target in assay [1] is T1, human COX-II (Homo sapiens, UniProt P35354).
T1 sequence (P35354 18-604): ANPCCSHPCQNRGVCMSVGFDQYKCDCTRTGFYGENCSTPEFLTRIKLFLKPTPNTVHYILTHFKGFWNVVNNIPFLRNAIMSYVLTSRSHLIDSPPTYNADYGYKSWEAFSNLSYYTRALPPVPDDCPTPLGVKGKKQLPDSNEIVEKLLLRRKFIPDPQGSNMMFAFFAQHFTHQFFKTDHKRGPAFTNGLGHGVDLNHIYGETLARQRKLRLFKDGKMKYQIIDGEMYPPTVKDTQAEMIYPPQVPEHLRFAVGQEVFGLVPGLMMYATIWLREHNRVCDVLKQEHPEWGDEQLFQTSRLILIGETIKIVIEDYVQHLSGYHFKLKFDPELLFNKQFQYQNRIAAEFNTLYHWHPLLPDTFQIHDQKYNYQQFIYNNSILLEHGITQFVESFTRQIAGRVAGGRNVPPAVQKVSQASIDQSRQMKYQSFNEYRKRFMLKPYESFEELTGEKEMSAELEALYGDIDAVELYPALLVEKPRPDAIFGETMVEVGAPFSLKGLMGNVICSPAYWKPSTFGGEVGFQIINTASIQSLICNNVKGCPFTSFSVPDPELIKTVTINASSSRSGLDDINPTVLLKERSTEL
Nature of the assay: COX II activity in vitro, human (PGE2 by ELISA). In general terms: An ELISA detects its analyte on a solid surface through an enzyme-linked reagent.

For assay [2], the target named is human COX-I (Homo sapiens, UniProt P23219). Kind of assay: COX I activity in vitro, human (PGE2 by ELISA).
human COX-I, sequence (P23219 24-599): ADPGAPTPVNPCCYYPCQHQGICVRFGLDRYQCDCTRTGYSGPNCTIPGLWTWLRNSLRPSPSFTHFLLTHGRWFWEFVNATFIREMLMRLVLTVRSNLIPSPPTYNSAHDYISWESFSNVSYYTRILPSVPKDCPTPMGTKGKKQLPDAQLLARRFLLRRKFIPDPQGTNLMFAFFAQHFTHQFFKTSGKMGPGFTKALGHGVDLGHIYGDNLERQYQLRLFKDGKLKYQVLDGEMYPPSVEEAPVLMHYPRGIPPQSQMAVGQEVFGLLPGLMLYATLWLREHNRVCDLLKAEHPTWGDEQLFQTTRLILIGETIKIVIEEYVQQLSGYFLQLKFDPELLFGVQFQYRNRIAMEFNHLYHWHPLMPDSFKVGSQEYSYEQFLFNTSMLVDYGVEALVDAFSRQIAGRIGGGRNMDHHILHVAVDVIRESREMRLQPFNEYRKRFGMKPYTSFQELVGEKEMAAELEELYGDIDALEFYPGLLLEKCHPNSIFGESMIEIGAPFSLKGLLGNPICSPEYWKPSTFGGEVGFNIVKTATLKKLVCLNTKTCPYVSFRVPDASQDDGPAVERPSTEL
Assay [3] concerns the target T2, murine COX-I (Mus musculus, UniProt P22437).
T2 sequence (P22437 27-602): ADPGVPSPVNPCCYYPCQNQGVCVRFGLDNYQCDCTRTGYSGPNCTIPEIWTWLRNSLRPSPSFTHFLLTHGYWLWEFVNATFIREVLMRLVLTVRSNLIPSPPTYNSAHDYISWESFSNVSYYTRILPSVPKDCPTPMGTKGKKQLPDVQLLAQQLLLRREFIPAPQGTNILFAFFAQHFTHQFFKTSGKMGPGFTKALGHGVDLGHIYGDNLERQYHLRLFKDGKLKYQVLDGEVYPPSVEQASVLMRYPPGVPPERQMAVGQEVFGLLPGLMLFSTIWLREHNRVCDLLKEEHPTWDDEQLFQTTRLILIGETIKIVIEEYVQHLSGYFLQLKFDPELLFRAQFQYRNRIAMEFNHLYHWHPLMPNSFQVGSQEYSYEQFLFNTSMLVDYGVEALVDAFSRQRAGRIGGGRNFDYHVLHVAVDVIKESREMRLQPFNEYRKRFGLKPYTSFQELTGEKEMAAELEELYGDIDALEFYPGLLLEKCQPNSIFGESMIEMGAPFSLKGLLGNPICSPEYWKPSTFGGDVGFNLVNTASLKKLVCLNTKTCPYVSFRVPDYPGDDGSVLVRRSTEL
Kind of assay: COX I activity in vitro, murine (PGE2 by ELISA).

The target of assay [4] is T3, murine COX-II (Mus musculus, UniProt Q05769).
T3 sequence (Q05769 18-604): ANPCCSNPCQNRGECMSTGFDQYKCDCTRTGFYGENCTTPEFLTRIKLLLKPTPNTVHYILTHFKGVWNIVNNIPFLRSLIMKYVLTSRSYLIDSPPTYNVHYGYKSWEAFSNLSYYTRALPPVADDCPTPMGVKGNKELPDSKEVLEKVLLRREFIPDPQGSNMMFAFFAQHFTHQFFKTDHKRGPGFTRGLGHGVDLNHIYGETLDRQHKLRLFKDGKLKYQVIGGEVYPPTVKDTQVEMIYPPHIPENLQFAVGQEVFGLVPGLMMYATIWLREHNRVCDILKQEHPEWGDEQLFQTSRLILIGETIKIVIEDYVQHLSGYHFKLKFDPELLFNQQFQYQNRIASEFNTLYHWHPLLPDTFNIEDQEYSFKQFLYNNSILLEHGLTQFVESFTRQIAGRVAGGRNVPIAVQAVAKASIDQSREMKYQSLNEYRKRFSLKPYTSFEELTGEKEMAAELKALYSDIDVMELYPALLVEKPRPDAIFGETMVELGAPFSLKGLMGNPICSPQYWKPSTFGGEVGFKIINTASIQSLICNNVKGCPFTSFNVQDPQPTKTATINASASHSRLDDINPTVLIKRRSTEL
Nature of the assay: biochemical.

The subject of assay [5] is carrageenan foot edema. Nature of the assay: Rat Carrageenan Foot Pad Edema Test. In kind it is in vivo, rat (Male Sprague-Dawley). The note with it: oral, 3 hours after carrageenan, read-out: RAT PAW EDEMA % Inhibition; for inhibition at 20 mg/kg: @ 20 mg/kg body weight. As for the experimental part:
Male Sprague-Dawley rats were selected in each group so that the average body weight was as close as possible. Rats were fasted with free access to water for over sixteen hours prior to the test. […] One hour later a subplantar injection of 0.1 mL of 1% solution of carrageenan/sterile 0.9% saline was administered and the volume of the injected foot was measured with a displacement plethysmometer connected to a pressure transducer with a digital indicator. Three hours after the injection of the carrageenan, the volume of the foot was again measured. […] Rat Carrageenan-induced Analgesia Test

The structures appear in SMILES notation. Like-named read-outs stand apart in the source and are kept apart here. Some results are limits rather than exact numbers.

`CS(=O)(=O)c1ccc(-c2sc(COc3ccc(Cl)cc3)nc2-c2ccc(F)cc2)cc1` [Example 1, 2-((4-Chlorophenoxy)methyl)-4-(4-fluorophenyl)-5-(4-methylsulfonylphenyl)thiazole]: the results for the IC50 in assay [1], in assay [2] and in assay [3] were less than 100 nM, more than 10000 nM and more than 100000 nM, respectively.
In assay [1], `CS(=O)(=O)c1ccc(-c2sc(-c3ccccc3Cl)nc2-c2ccccc2)cc1` [Example 2, 2-(2-Chlorophenyl)-4-phenyl-5-(4-methylsulfonylphenyl)thiazole] registered an IC50 of less than 100 nM.
In assay [1], `CS(=O)(=O)c1ccc(-c2sc(-c3ccccc3Cl)nc2-c2cccc(F)c2)cc1` [Example 3, 2-(2-Chlorophenyl)-4-(3-fluorophenyl)-5-(4-methylsulfonylphenyl)thiazole] gave an IC50 of less than 100 nM.
Turning to `CS(=O)(=O)c1ccc(-c2sc(-c3ccccc3Cl)nc2-c2ccc(F)cc2F)cc1` [Example 4, 4-(2,4-Difluorophenyl)-2-(2-chlorophenyl)-5-(4-methylsulfonylphenyl)thiazole], the IC50 in assay [1] was less than 100 nM; in assay [4], less than 100 nM; in assay [2] (read-out: COX I ID50, human (h), 10 μM arachidonic acid), 70000 nM; in assay [3] it was 6200 nM.
With `Cc1ccccc1-c1nc(-c2ccccc2Cl)sc1-c1ccc(S(C)(=O)=O)cc1` [Example 5, 2-(2-Chlorophenyl)-4-(2-methylphenyl)-5-(4-methylsulfonylphenyl)thiazole], the figures for the IC50 in assay [1] and in assay [2] were less than 100 nM and more than 100000 nM, respectively.
The matching figures for `CS(=O)(=O)c1ccc(-c2sc(-c3ccccc3Cl)nc2-c2ccccc2Cl)cc1` [Example 9, 2-(2-Chlorophenyl)-4-(2-chlorophenyl)-5-(4-methylsulfonylphenyl)thiazole]: less than 100 nM and more than 100000 nM.
Turning to `CS(=O)(=O)c1ccc(-c2sc(-c3ccccc3Cl)nc2-c2ccc(Cl)cc2)cc1` [Example 10, 2-(2-Chlorophenyl)-4-(4-chlorophenyl)-5-(4-methylsulfonylphenyl)thiazole], the values for the IC50 in assay [1] and in assay [2] were less than 100 nM and more than 100000 nM, respectively. Moreover, the inhibition (usually how much of the control response was suppressed) at 20 mg/kg in assay [5] came to 14%.
On to `COc1ccc(-c2nc(-c3ccccc3Cl)sc2-c2ccc(S(C)(=O)=O)cc2)cc1` [Example 11, 2-(2-Chlorophenyl)-4-(4-methoxyphenyl)-5-(4-methylsulfonylphenyl)thiazole], for which the IC50 in assay [1] was less than 100 nM; in assay [2], more than 100000 nM.
Regarding `CS(=O)(=O)c1ccc(-c2sc(C(Br)S(=O)(=O)c3cccs3)nc2-c2ccc(F)cc2)cc1` (centres unmarked) [Example 14], the IC50 in assay [1] is 600 nM; in assay [4] it was 500 nM; in assay [2] it was more than 100000 nM; in assay [3] it was 39800 nM.
As to `Cc1ccc(-c2nc(-c3ccccc3Cl)sc2-c2ccc(S(C)(=O)=O)cc2)cc1` [Example 15, 2-(2-Chlorophenyl)-5-(4-methylsulfonylphenyl)-4-(4-methylphenyl)thiazole], the IC50 in assay [1] was 200 nM; in assay [2], more than 100000 nM.
On to `CS(=O)(=O)c1ccc(-c2sc(CCCc3ccc(Br)cc3)nc2-c2ccc(F)cc2)cc1` [Example 21], for which the IC50 in assay [1] is less than 100 nM; in assay [4], less than 100 nM; in assay [3] it was more than 10000 nM.
On to `CS(=O)(=O)c1ccc(-c2sc(-c3ccc(Br)s3)nc2-c2ccc(F)cc2)cc1` [Example 25, 2-(5'-Bromo-2'-thienyl)-4-(4-fluorophenyl)-5-(4-methylsulfonylphenyl)thiazole], for which the IC50 is less than 100 nM in assay [1] and 2600 nM in assay [2].
The corresponding values for `NS(=O)(=O)c1ccc(-c2sc(-c3ccccc3Cl)nc2-c2ccc(F)cc2)cc1` [Example 32, 4-[4-(4-Fluorophenyl)-2-(2-chlorophenyl)-5-thiazolyl]benzensulfonamide] are less than 100 nM and 700 nM.
In assay [2], `NS(=O)(=O)c1ccc(-c2sc(COc3cc(Cl)cc(Cl)c3)nc2-c2ccc(F)cc2)cc1` [Example 34, 4-[2-((3,5-Dichlorophenoxy)methyl)-4-(4-fluorophenyl)-5-thiazolyl]benezenesulfonamide] showed an IC50 of less than 100 nM.
On to `CS(=O)(=O)c1ccc(-c2sc(COc3cccc(Cl)c3)nc2-c2ccccc2F)cc1` [Example 36, 2-(3-Chlorophenoxy)methyl-4-(2-fluorophenyl)-5-[4-(methylsulfonyl)phenyl]thiazole], for which the IC50 was less than 100 nM in assay [1] and more than 100000 nM in assay [2].
The matching figures for `CS(=O)(=O)c1ccc(-c2sc(COc3ccccc3Cl)nc2-c2ccc(F)cc2)cc1` [Example 38, 2-((2-Chlorophenoxy)methyl)-4-(4-fluorophenyl)-5-(4-methylsulfonylphenyl)thiazole]: less than 100 nM and more than 100000 nM.
The matching figures for `CS(=O)(=O)c1ccc(-c2sc(-c3ccccc3Cl)nc2-c2ccc(Br)cc2)cc1` [Example 40, 4-(4-Bromophenyl)-2-(2-chlorophenyl)-5-[4-(methylsulfonyl)phenyl]thiazole]: less than 100 nM and more than 100000 nM.
For the molecule `COc1ccc(OCc2nc(-c3ccc(F)cc3)c(-c3ccc(S(C)(=O)=O)cc3)s2)cc1` [Example 41, 4-(4-Fluorophenyl)-2-[(4-methoxyphenoxy)methyl]-5-[4-(methylsulfonyl)phenyl]thiazole], the IC50 in assay [1] is less than 100 nM; in assay [2], more than 100000 nM. The inhibition at 20 mg/kg in assay [5] turned out to be 4%.
Consider `CCNc1nc(-c2ccc(F)cc2)c(-c2ccc(S(C)(=O)=O)cc2)s1` [Example 50, 2-Ethylamino-4-(4-fluorophenyl)-5-(4-methylsulfonylphenyl)-thiazole], for which the inhibition at 10 mg/kg in assay [5] was found to be 11%. Besides, the results for the IC50 in assay [4] and in assay [3] were 300 nM and more than 10000 nM, respectively.
The corresponding values for `CC(C)(C)Nc1nc(-c2ccc(F)cc2)c(-c2ccc(S(C)(=O)=O)cc2)s1` [Example 51, 2-tert-Butylamino-4-(4-fluorophenyl)-5-(4-methylsulfonylphenyl)thiazole] are 14%, 300 nM and 11900 nM.
The matching figures for `CS(=O)(=O)c1ccc(-c2sc(Nc3cc(Cl)cc(Cl)c3)nc2-c2ccc(F)cc2)cc1` [Example 52, 2-(3,5-Dichlorophenylamino)-4-(4-fluorophenyl)-5-(4-methylsulfonylphenyl)thiazole]: 7%, 500 nM and more than 100000 nM.

Source of the values: patent US5668161A, “Substituted thiazoles for the treatment of inflammation” (G.D. Searle & Co., priority 1996, dated 1997).
